Assay results published in EP0502987B1, “ACYLATED BRADYKININ ANTAGONISTS AND USES THEREFOR” (TRUSTEES OF BOSTON UNIVERSITY, priority 1989, dated 1994).
Square brackets hold non-standard residues; d marks the D form. Peptide text beside a SMILES is read from it. Hyp = O=C(O)[C@@H]1C[C@@H](O)CN1; 2Thi = N[C@@H](Cc1cccs1)C(=O)O

Test system: vasodepressor response of exogenous bradykinin
Test: Inhibition of the vasodepressor response to exogenous bradykinin in awake rats
Assay type: in vivo, Wistar rats
Description: An adamantane acetic acid-modified bradykinin analog was synthesized by the solid-phase method described in Example 1. The analog designed by Stewart et al. was also synthesized and used as a control. The control (or model) and test analogs had the following structure: Model: D-Arg-Arg-Pro-Hyp-Gly-Thi-Ser-D-Phe-Thi-Arg Test: [formula] The antagonistic potency of the analogs was assessed by their ability to inhibit the vasodepressor response of exogenous bradykinin in awake rats.
Intact male Wistar rats (Charles River Breeding Laboratories, Wilmington, MA, U.S.A.) weighing 225-250 g were used and maintained on a regular Purina Rat Chow diet and tap water in a room at constant temperature (23 ± 1°C) with 12 hour dark/12 hour light cycles. One day before the experiment, the right carotid and the iliac artery in the rats were catheterized with polyethylene tubing (PE 50) under light ether anesthesia. A "Y" type connection was connected to the carotid artery catheter with two ends: one for injecting bradykinin and the other for infusing the bradykinin analogs. All of the catheters were externalized subcutaneously at the back of the neck. On the day of the experiment, the rats were maintained conscious and unrestrained in plastic cages. Arterial pressure (AP), mean arterial pressure (MAP) and heart rate (HR) were monitored through a Gould-Statham P23 ID pressure transducer (Gould, Cleveland, OH) connected to the iliac catheter and recorded on a Gould 2200S paper chart recorder. A half-hour period was allowed before the actual initiation of the experiment. […]
The effectiveness of each analog was tested by regression analysis of the data obtained in each rat, using a logarithmic transformation of the linear portion of each dose-response curve to calculate the ED₂₂ and ED₉₀ values. The comparison between the two analogs at the same dose was determined using the Students Nonpaired T Test. […]
The pA₂ is the most commonly used parameter to quantitatively express the potency of an antagonist. […]

With `N=C(N)NCCC[C@@H](N)C(=O)N[C@@H](CCCNC(=N)N)C(=O)N1CCC[C@H]1C(=O)N1C[C@H](O)C[C@H]1C(=O)NCC(=O)N[C@@H](Cc1cccs1)C(=O)N[C@@H](CO)C(=O)N[C@H](Cc1ccccc1)C(=O)N[C@@H](Cc1cccs1)C(=O)N[C@@H](CCCNC(=N)N)C(=O)O` [Model Analog, D-Arg-Arg-Pro-Hyp-Gly-Thi-Ser-D-Phe-Thi-Arg] (H-[dR]RP[Hyp]G[2Thi]S[dF][2Thi]R-OH) the ED₂₂ (dose of analog infused (intracarotid) which inhibits 22% of the vasodepressor response to 250 ng of BK, conscious rats pretreated with enalapril 1 mg/kg, 7 rats, mean ± SE) was 1.49 ± 0.29 µg/min, the ED₉₀ (dose of analog infused (intracarotid) which inhibits 90% of the vasodepressor response to 250 ng of BK, conscious rats pretreated with enalapril 1 mg/kg, 7 rats, mean ± SE) was 142.50 ± 26.44 µg/min and the “pA₂ (anti-vasodepressor potency)” value (negative logarithm of ED value (ED₂₂) divided by estimated volume of distribution (67ml/kg)) was 7.17±0.11.
